# Measured values as given in patent US20230331707A1, “PROGRAMMED CELL NECROSIS INHIBITOR, PREPARATION METHOD THEREFOR, AND USE THEREOF” (Shanghai Institute of Organic Chemistry, Chinese Academy of …, priority 2020, published 2023).
# Read-outs that look alike come from different tables or passages of the source.
# Legend:
# [1] = system: FADD−/− Jurkat cells; experiment: Inhibition of TNF-induced programmed necrosis of FADD deficient Jurkat cells (Cell Titer-Glo viability); assay type: cell-based
# Source text: (§1) The adopted biological assay protocol was: the effect of compounds on programmed necroptosis of TNF-induced FADD (Fas-Associated Death Domain) deficient Jurkat cells and L929 cells.
# (§2) In order to verify the inhibitory effect of the compounds of the present invention on programmed cell necrosis at the cellular level, cell types that is closely related to the RIP1 pathway, namely FADD deficient Jurkat cells (human peripheral blood leukemia T cell strain) and L929 cells, were selected. Two different stimulation methods were used: tumor necrosis factor (TNFα) was used alone, or TNFα was used in combination with mitochondria-derived cysteine aspartate activator (SMAC) SM164. Cells viability was calculated by detecting chemiluminescence values, thereby obtaining the biological activity of the compound on the inhibition of programmed cell necrosis.
# (§3) Methods: FADD deficient Jurkat cells: FADD deficient Jurkat cells (human peripheral blood leukemia T cell line) were cultured in vitro. After growing to the logarithmic growth phase, the cells were collected, centrifuged at 1000 rpm for 5 min, the supernatant was discarded, and the cell concentration was adjusted to 2.5×10^5/mL. Cells were seeded into 384-well plates, 40 μl per well. 5 μL of SM164 (50 nM) diluted in cell culture medium and 5 μL of each compound were added to the corresponding wells. After pretreatment at 37° C. for 1 h, 5 μL of TNFα (50 ng/mL) diluted in cell culture medium was added to each well of the stimulation group, and 5 μL of the culture medium was added to the control group. The plate was cultured in a cell incubator (37° C., 5% CO2) for 14 h, and […] of Cell Titer-Glo solution was added to each well, then incubated for 30 min at room temperature, and intracellular ATP level was measured by detecting luminescence. The unstimulated DMSO control wells were taken as 100% cell viability. L929 cells: The L929 cells (mouse fibroblasts) were cultured in vitro, digested and diluted to 6.25×10^4/ml, and the cells were seeded into 384-well plates, 40 μl per well. The plate was placed in a cell incubator (37° C., 5% CO2) for 12 hours. 5 μL of SM164 (500 nM) diluted in cell culture medium and 5 μL of each compound were added to the corresponding wells. After pretreatment at 37° C. for 1 h, 5 μL of TNFα (500 ng/mL) diluted in cell culture medium was added to each well of the stimulation group, and 5 μL of the culture medium was added to the control group. After the plate was cultured for 14 h in a cell incubator (37° C., 5% CO2), 15 μl of Cell Titer-Glo solution was added to each well. The plate was incubated at room temperature for 30 min, and intracellular ATP level was measured by detecting luminescence. The unstimulated DMSO control wells were taken as 100% cell viability. EC50 values of the compounds were calculated using Prism Graphpad statistical software.
# [2] = system: L929 cells; experiment: Inhibition of TNF-induced programmed necrosis of L929 cells (Cell Titer-Glo viability); assay type: cell-based, mouse
# Source text: as §1, §2, §3
# [3] = system: MEFs cells expressing RIPK1 WT; experiment: TSZ-induced programmed necrosis in MEFs cells expressing RIPK1 WT; assay type: cell-based, mouse; conditions: 10 μM
# Source text: (§4) The adopted biological test protocol was: the effect of compounds on programmed necrosis in MEFs cells (mouse embryonic fibroblasts) with RIPK1 S161E mutation.
# (§5) In order to verify the inhibitory effect of the compound of the present invention on the highly activated RIPK1 kinase at the cellular level, MEFs cells stably expressing RIPK1 S161E (simulating the activation state of RIPK1 after phosphorylation) were selected, TNFα-SM164-zVAD (Caspase inhibitor for inhibiting apoptosis) (TSZ) was used in combination to induce programmed cell necrosis, and cell viability was calculated by detecting chemiluminescence values, thereby obtaining the biological activity of the compound in inhibiting programmed necrosis.
# (§6) Methods: MEFs cells replenished by RIPK1: WT-RIPK1, S161A-RIPK1 and S161E-RIPK1 were replenished in RIPK1 stable knockout cells respectively. After stable expression and being cultured to logarithmic growth phase, the cells were collected, and centrifuged at 1000 rpm for 5 min. The supernatant was discarded. Cell concentration was adjusted to 5×10^4/mL, and cells were inoculated into 384-well plates with 40 μL per well. Cell culture medium diluted SM164 (100 nM), zVAD (50 μM) and compound, each […], were added to the corresponding wells. After pretreatment at 37° C. for 1 h, 5 μL of cell culture medium diluted TNF (50 ng/mL) was added to each well in the stimulated group and 5 μL of culture medium was added to the control group. […] The unstimulated DMSO control wells (Ctrl) were taken as 100% cell viability. EC50 values of the compounds were calculated using Prism Graphpad statistical software.
# [4] = system: MEFs cells expressing RIPK1 S161E mutant; experiment: TSZ-induced programmed necrosis in MEFs cells expressing RIPK1 S161E mutant; assay type: cell-based, mouse; conditions: 10 μM
# Source text: as §4, §5, §6
# [5] = Liver microsomal stability test, human; assay type: in vitro ADME; conditions: human liver microsomes, NADPH, 37° C.; for half-life at 1 µM: human, liver microsomes, read-out: T1/2 (min) Human
# Source text: (§7) The adopted biological test protocol was: testing the half-life of the compound in human- or mouse-derived liver microsomes.
# (§8) Liver microsomes contain many enzymes involved in drug metabolism, especially cytochrome P-450, and therefore it is one of the major tissues involved in drug metabolism in living organisms. There are some correlations between the stability of the compound in liver microsomes and the pharmacogenetic stability thereof in vivo. Therefore, the relative stability of compounds in vivo can be roughly predicted by testing the half-life of different compounds in human- or mouse-derived liver microsomes. The specific methods were as follows:
# (§9) Methods: 0.75 μL of 0.5 mM samples (compounds to be tested and control verapamil), 9.38 μL of 20 mg/mL liver microsomes (Human and Mouse) were taken and added to 239.88 μL PBS (on ice), and divided into 30 μL/tube samples respectively. The samples were incubated at 37° C. in a constant temperature water bath for 5 min, and then all samples were taken out. At zero-time, control group was added with 90 μL of ice acetonitrile first, and then added with 15 μL of 3 mM NADPH solution sequentially, and incubated at 37° C. in a constant temperature water bath. The corresponding samples were taken out after 5 min, 10 min, 20 min, 30 min and 60 min, respectively, and quenched by adding 90 μL of ice acetonitrile. All samples were centrifuged at 10000 rpm for 10 min, and the supernatants were taken and placed in a liquid phase vial waiting for LC-MS analysis.
# [6] = Liver microsomal stability test, mouse; assay type: in vitro ADME; conditions: mouse liver microsomes, NADPH, 37° C.; for half-life at 1 µM: mouse, liver microsomes, read-out: T1/2 (min) Mouse
# Source text: as §7, §8, §9
# [7] = Homo sapiens, Jurkat, 14 h, FADD−/− Jurkat cells, stimulated with TNFα + SM164, read-out: EC50 (μM) FADD−/− Jurkat cells (human) TNFα + SM164
# [8] = Mus musculus, L929, L929 cells, stimulated with TNFα + SM164, read-out: EC50 (μM) L929 cells (mouse) TNFα + SM164
# [9] = Mus musculus, L929, L929 cells, stimulated with TNFα alone, read-out: EC50 (μM) L929 cells (mouse) TNFα
# [10] = Homo sapiens, Jurkat, FADD−/− Jurkat cells, stimulated with TNFα alone, read-out: EC50 (μM) FADD−/− Jurkat cells (human) TNFα
# [11] = FADD−/− Jurkat cells, stimulated with TNFα + SM164, read-out: EC50 (μM) FADD−/− Jurkat cells (human) TNFα + SM164
# [12] = L929 cells, stimulated with TNFα + SM164, read-out: EC50 (μM) L929 cells (mouse) TNFα + SM164
# [13] = L929 cells, stimulated with TNFα alone, read-out: EC50 (μM) L929 cells (mouse) TNFα
Compound,"EC50 [1, 7]","EC50 [2, 8]","EC50 [2, 9]","EC50 [1, 10]",half-life at 1 µM [5],half-life at 1 µM [6],other results
"CN1C(=O)[C@@H](NC(=O)c2n[nH]c(Cc3ccccc3)n2)COc2ccccc21 [GSK2982772, reference compound]",4 nM,> 10 µM,2.51 µM,–,–,–,"EC50 ([1]; Homo sapiens, Jurkat, read-out: EC50 (μM) FADD−/− Jurkat cells (human) TNFα): 0.68 nM; inhibition of programmed necrosis (in words) ([2]; mouse-derived L929 cells): almost inactive; inhibition of programmed necrosis [3]: can effectively inhibit the occurrence of programmed necrosis; inhibition of programmed necrosis [4]: only shows weak inhibition"
"CN1C(=O)N[C@H](Cc2c[nH]c3c(Cl)cccc23)C1=O [Nec-1s, reference compound]",900 nM,–,–,228 nM,–,–,"EC50 ([2]; Mus musculus, L929, read-out: EC50 (μM) L929 cells (mouse) TNFα): 0.443 µM; inhibition of programmed necrosis [3]: can effectively inhibit the occurrence of programmed necrosis; inhibition of programmed necrosis [4]: does not exhibit inhibition"
"CNC(=O)c1ccc2c(c1)ncn2-c1ccc(CNC(=O)c2cc(Cc3ccccc3)on2)cc1 [QY-6-16, 5-Benzyl-N-(4-(5-(methylcarbamoyl)-1H-benzo[d]imidazol-1-yl)benzyl) isoxazol-3-formamide]",113 nM,3.35 µM,2.14 µM,8.1 nM,21.7 min,24.8 min,–
"CNC(=O)c1ccc2c(c1)ncn2-c1ccc(CNC(=O)c2noc(Cc3ccccc3)n2)cc1 [QY-7-14, 5-Benzyl-N-(4-(5-(methylcarbamoyl)-1H-benzo[d]imidazol-1-yl)benzyl)-1,2,4-oxadiazol-3-carboxamide]",180 nM,4.74 µM,0.962 µM,24.3 nM,13.9 min,77 min,–
CNC(=O)c1ccc2c(c1)ncn2-c1ccc(CN2CCc3cn(Cc4ccccc4)nc3C2=O)cc1 [QY-8-7],37.8 nM,> 10 µM,3 µM,10.8 nM,46.2 min,12.2 min,–
"Cn1nc(C(=O)NCc2ccc(-n3cnc4c(N)ncnc43)cc2)cc1Cc1ccccc1 [QY-8-43, N-(4-(6-amino-9H-purin-9-yl)benzyl)-5-benzyl-1-methyl-1H-pyrazole-3-carboxamide]",–,–,–,–,38.5 min,23.9 min,"EC50 [1, 11]: 17.7 nM; EC50 ([1]; FADD−/− Jurkat cells, stimulated with TNFα alone, read-out: EC50 (μM) FADD−/− Jurkat cells (human) TNFα): 2.85 nM; EC50 [2, 12]: 0.152 µM; EC50 [2, 13]: 0.0111 µM"
CCn1nc(C(=O)NCc2ccc(-n3ccc4c(N)ncnc43)cc2)cc1Cc1ccccc1 [QY-9-33],1040 nM,> 10 µM,> 10 µM,3.77 nM,9.6 min,11.2 min,–
CCn1nc(C(=O)NCc2ccc(-n3cnc4c(N)ncnc43)cc2)cc1Cc1ccccc1 [QY-9-34],3.52 nM,> 10 µM,8.36 µM,0.416 nM,14.7 min,13.9 min,–
Nc1ncnc2c1ccn2-c1ccc(CN2CCc3cn(Cc4ccccc4)nc3C2=O)cc1 [QY-9-41],234 nM,> 10 µM,> 10 µM,21.5 nM,38.5 min,36.5 min,–
Nc1ncnc2c1ncn2-c1ccc(CN2CCc3cn(Cc4ccccc4)nc3C2=O)cc1 [QY-9-50],12.1 nM,2.73 µM,1.39 µM,0.191 nM,86.6 min,116 min,–
CN1CCN(CCNC(=O)c2ccc3c(c2)ncn3-c2ccc(CNC(=O)c3cnn(C)c3Cc3ccccc3)cc2)CC1 [QY-11-69B],6.33 nM,0.00108 µM,0.000563 µM,0.984 nM,43.3 min,46.2 min,–
Cn1ncc(C(=O)NCc2ccc(-n3cnc4c(N)ncnc43)cc2)c1Cc1ccccc1 [QY-11-78],–,–,–,0.036 nM,–,–,"EC50 [1, 11]: 0.689 nM; T1/2 (min) Human [5]: 12.6 min; T1/2 (min) Mouse [6]: 23.9 min; EC50 [2, 12]: 0.0232 µM; EC50 [2, 13]: 0.00987 µM"
CCn1nc(C(=O)NCc2ccc(-n3cnc4cc(C(=O)NC)ccc43)cc2)cc1Cc1ccccc1 [XHJ-4-36],42.8 nM,> 10 µM,0.0107 µM,5.91 nM,46.2 min,10.7 min,–
CNC(=O)c1ccc2c(c1)ncn2-c1ccc(CNC(=O)c2nnn(Cc3ccccc3)n2)cc1 [ZSQ-13-36],150 nM,4.31 µM,1.11 µM,24 nM,99 min,99 min,–
Nc1ncnc2c1ncn2-c1ccc(CNC(=O)c2ccc(Cl)n2Cc2ccccc2)cc1 [ZSQ-21-18],80.6 nM,–,–,6.57 nM,8.6 min,30.1 min,–
